Reference: ChEMBL document CHEMBL1136292, “Synthesis and AMPA receptor antagonistic activity of a novel class of quinoxalinecarboxylic acid with a substituted phenyl group at the C-7 position” (Bioorg Med Chem Lett, 2003)
Calls of active or inactive are those of the source. The calls are words filed in the database; no cut-off is given here.

Legend:
[1] = molecular target: Glutamate receptor ionotropic, AMPA (Rattus norvegicus, UniProt P19490+P19491+P19492+P19493); assay: biochemical
Description: Binding affinity for ionotropic glutamate receptor AMPA using [3H]AMPA as radioligand, bound to synaptic membranes prepared from rat cerebral cortex

[2] = test system: Rattus norvegicus; assay: Neuroprotective effect in rat after iv administration at a dose of 30 mg/kg/h for 4 h; type: functional
[3] = test system: Rattus norvegicus; assay: Neuroprotective effect in rat after iv administration at a dose of 5 mg/kg/h for 4 h; type: functional
[4] = species: Rattus norvegicus; assay: In vitro inhibitory effect on AMPA-induced DC potential in rat cortical slices; active; type: functional
[5] = test system: Rattus norvegicus; assay: Neuroprotective effect in rat after iv administration at a dose of 20 mg/kg/h for 4 h; type: functional
[6] = test system: Rattus norvegicus; assay: Neuroprotective effect in rat after iv administration at a dose of 15 mg/kg/h for 4 h; type: functional
[7] = test system: Rattus norvegicus; assay: Neuroprotective effect in rat after iv administration at a dose of 2.5 mg/kg/h for 4 h; type: functional

Question: How did the Ki [1] turn out when `O=C(O)c1nc2cc(N3CCOCC3)c([N+](=O)[O-])cc2nc1O` was run?
Answer: The Ki was 2000 nM.

Question: With `O=C(Nc1ccccc1)OCc1cn(-c2cc3nc(C(=O)O)c(O)nc3cc2[N+](=O)[O-])cn1` as the compound, how does the Ki [1] read?
Answer: The Ki was 86 nM.

Question: With `CN(C)c1cc2nc(C(=O)O)c(O)nc2cc1[N+](=O)[O-]` as the compound, how does the Ki [1] read?
Answer: Its Ki is 910 nM.

Question: With `O=C(Nc1ccccc1C(=O)O)OCc1cn(-c2cc3nc(C(=O)O)c(=O)[nH]c3cc2[N+](=O)[O-])cn1` as the compound, how does the Ki [1] read?
Answer: The Ki was over 900 nM.

Question: `NS(=O)(=O)c1cccc2c1c([N+](=O)[O-])cc1nc(O)c(O)nc12` [NBQX] was tested. Which Activity [2] did it give?
Answer: The Activity was 2.3.

Question: With `O=C(NCc1cccc(Br)c1)OCc1cn(-c2cc3nc(C(=O)O)c(O)nc3cc2[N+](=O)[O-])cn1` as the compound, how does the Ki [1] read?
Answer: The Ki was 100 nM.

Question: `O=C(Nc1ccc(C(=O)O)cc1)OCCc1cn(-c2cc3nc(C(=O)O)c(=O)[nH]c3cc2[N+](=O)[O-])cn1` was tested. Which Ki [1] did it give?
Answer: The Ki was 270 nM.

Question: How did the Activity [3] turn out when `O=C(Nc1cccc(C(=O)O)c1)OCc1cn(-c2cc3nc(C(=O)O)c(O)nc3cc2[N+](=O)[O-])cn1` was run?
Answer: The Activity was 2.3.

Question: And the “activity call (active/inactive)” value [4]?
Answer: The value was “Active”.

Question: What about the Ki [1] of the same compound?
Answer: Its Ki is 27 nM.

Question: Which Ki [1] does the source give for `O=C(Nc1ccc(Br)cc1)OCc1cn(-c2cc3nc(C(=O)O)c(=O)[nH]c3cc2[N+](=O)[O-])cn1` here?
Answer: The Ki was 32 nM.

Question: `O=C(Nc1ccccc1Cl)OCc1cn(-c2cc3nc(C(=O)O)c(O)nc3cc2[N+](=O)[O-])cn1` was tested. Which Ki [1] did it give?
Answer: Its Ki is 20 nM.

Question: With `O=C(NCc1ccccc1)OCc1cn(-c2cc3nc(C(=O)O)c(=O)[nH]c3cc2[N+](=O)[O-])cn1` as the compound, how does the Ki [1] read?
Answer: Its Ki is 67 nM.

Question: `O=C(O)c1nc2cc(-n3ccc(=O)cc3)c([N+](=O)[O-])cc2nc1O` was tested. Which Ki [1] did it give?
Answer: Its Ki is 330 nM.

Question: Which Activity [5] does the source give for `O=C(O)c1nc2cc(-n3ccnc3)c([N+](=O)[O-])cc2nc1O` here?
Answer: Its Activity is 0.2.

Question: What about the “activity call (active/inactive)” value [4] of the same compound?
Answer: Its value is “Active”.

Question: With `Cc1nccn1-c1cc2nc(C(=O)O)c(O)nc2cc1[N+](=O)[O-]` as the compound, how does the Ki [1] read?
Answer: Its Ki is over 10000 nM.

Question: For `O=C(O)Cc1cn(-c2cc3nc(C(=O)O)c(O)nc3cc2[N+](=O)[O-])cn1`, which Ki [1] is on record?
Answer: The Ki was 530 nM.

Question: Which Ki [1] does the source give for `O=C(Nc1cccc(Cl)c1)OCc1cn(-c2cc3nc(C(=O)O)c(O)nc3cc2[N+](=O)[O-])cn1` here?
Answer: The Ki was 18 nM.

Question: How did the Activity [6] turn out when `O=c1[nH]c2cc(-n3ccnc3)c([N+](=O)[O-])cc2[nH]c1=O` [YM-90K] was run?
Answer: Its Activity is 2.8.

Question: What about the “activity call (active/inactive)” value [4] of the same compound?
Answer: Its value is “Active”.

Question: And the Ki [1]?
Answer: Its Ki is 100 nM.

Question: How did the Ki [1] turn out when `O=C(Nc1cccc(Br)c1)OCc1cn(-c2cc3nc(C(=O)O)c(O)nc3cc2[N+](=O)[O-])cn1` was run?
Answer: Its Ki is 16 nM.

Question: `O=C(O)c1nc2cc(-n3cnc(CO)c3)c([N+](=O)[O-])cc2[nH]c1=O` was tested. Which Ki [1] did it give?
Answer: The Ki was 2600 nM.

Question: `O=C(NCc1ccc(Br)cc1)OCc1cn(-c2cc3nc(C(=O)O)c(O)nc3cc2[N+](=O)[O-])cn1` was tested. Which Ki [1] did it give?
Answer: The Ki was 47 nM.

Question: `O=C(Nc1ccccc1Br)OCc1cn(-c2cc3nc(C(=O)O)c(O)nc3cc2[N+](=O)[O-])cn1` was tested. Which Ki [1] did it give?
Answer: Its Ki is 30 nM.

Question: What does the source list for `O=C(Nc1ccc(C(=O)O)cc1)OCc1cn(-c2cc3nc(C(=O)O)c(O)nc3cc2[N+](=O)[O-])cn1`?
Answer: Activity [7]: 3; activity call (active/inactive) [4]: Active

Question: How did the Ki [1] turn out when `O=C(Nc1ccc(C(=O)O)cc1)OCc1cn(-c2cc3nc(C(=O)O)c(=O)[nH]c3cc2[N+](=O)[O-])cn1` was run?
Answer: The Ki was 22 nM.

Question: Which results are given for `O=C(O)Cn1c(=O)c(=O)[nH]c2cc([N+](=O)[O-])c(-n3ccnc3)cc21` [ZONAMPANEL]?
Answer: Activity [2]: 0.5; activity call (active/inactive) [4]: Active; Ki [1]: 62 nM

Question: For `Cc1ccccc1NC(=O)OCc1cn(-c2cc3nc(C(=O)O)c(O)nc3cc2[N+](=O)[O-])cn1`, which Ki [1] is on record?
Answer: Its Ki is 16 nM.

Question: How did the Ki [1] turn out when `Cc1cn(-c2cc3nc(C(=O)O)c(O)nc3cc2[N+](=O)[O-])cn1` was run?
Answer: Its Ki is 1300 nM.

Question: For `O=C(O)c1nc2cc(F)c([N+](=O)[O-])cc2nc1O`, which Ki [1] is on record?
Answer: Its Ki is 2000 nM.

Question: How did the Ki [1] turn out when `O=C(O)c1nc2cc(N3CCC(O)CC3)c([N+](=O)[O-])cc2nc1O` was run?
Answer: The Ki was 2500 nM.

Question: Which Ki [1] does the source give for `O=C(Nc1ccc(Cl)cc1)OCc1cn(-c2cc3nc(C(=O)O)c(O)nc3cc2[N+](=O)[O-])cn1` here?
Answer: Its Ki is 30 nM.

Question: `Cc1cccc(NC(=O)OCc2cn(-c3cc4nc(C(=O)O)c(O)nc4cc3[N+](=O)[O-])cn2)c1` was tested. Which Ki [1] did it give?
Answer: Its Ki is 22 nM.

Question: With `Cc1ccc(NC(=O)OCc2cn(-c3cc4nc(C(=O)O)c(O)nc4cc3[N+](=O)[O-])cn2)cc1` as the compound, how does the Ki [1] read?
Answer: Its Ki is 30 nM.

Question: For `O=C(NCc1ccccc1Br)OCc1cn(-c2cc3nc(C(=O)O)c(O)nc3cc2[N+](=O)[O-])cn1`, which Ki [1] is on record?
Answer: Its Ki is 29 nM.

Question: For `O=C(Nc1ccccc1)OCc1cn(-c2cc3nc(C(=O)O)c(O)nc3cc2[N+](=O)[O-])ccc1=O`, which Ki [1] is on record?
Answer: The Ki was 170 nM.

Question: `O=C(O)c1nc2cc(-n3ccnc3)c([N+](=O)[O-])cc2[nH]c1=O` was tested. Which Ki [1] did it give?
Answer: Its Ki is 560 nM.

Question: How did the Ki [1] turn out when `O=C(O)c1nc2cc(N3CCCCC3)c([N+](=O)[O-])cc2nc1O` was run?
Answer: Its Ki is 3800 nM.
